Calls of active or inactive are those of the source. The rule behind the calls is not given here.

The record followed here is ChEMBL document CHEMBL1149750, “Drimane Sesquiterpene Lactones from Peniophora polygonia” (J Nat Prod, 1992).

The assay concerns Phellinus tremulae. Description: Antifungal activity against Phellinus tremulae. Format: functional, organism-based.

With `CC1(C)CCC[C@]2(C)[C@H]3COC(=O)[C@@]3(O)CC[C@@H]12`, the result was Active.
